From US4323648A, “Preparation of Monacolin K” (Sankyo Company Limited, priority 1979, dated 1982)

How the values were obtained:
Acute oral toxicity = details: in vivo, mouse
Description: Not only does Monacolin K have a valuable inhibitory effect on the biosynthesis of cholesterol, but it also has a very low toxicity, making its use for the treatment of hypercholesteraemia potentially very attractive. Specifically the acute oral toxicity (LD50) of Monacolin K in the mouse is 1 g/kg body weight or more.

[1] = test system: rats of the Wistar Imamichi strain; assay: Reduction of blood and liver cholesterol levels in Triton WR-1339 treated rats; format: in vivo; details: rat
Protocol: The animals used were rats of the Wistar Imamichi strain, each having a body weight of about 300 g. The tests were conducted on groups of rats, each group consisting of 5 animals. Each animal was intravenously injected with 400 mg/kg of Triton WR-1339 (a trade name for a material known to increase the blood cholesterol level) whilst simultaneously administering 10 mg/kg of Monacolin K either orally or intraperitoneally. 20 hours after oral administration or 14 hours after intraperitoneal administration, the rats were sacrificed by bleeding and the blood and livers were collected and their cholesterol levels were determined by conventional means.

HMG-CoA reductase = target: T1, HMG-CoA reductase (Rattus norvegicus, UniProt P51639); assay: biochemical
T1 sequence (P51639 1-887): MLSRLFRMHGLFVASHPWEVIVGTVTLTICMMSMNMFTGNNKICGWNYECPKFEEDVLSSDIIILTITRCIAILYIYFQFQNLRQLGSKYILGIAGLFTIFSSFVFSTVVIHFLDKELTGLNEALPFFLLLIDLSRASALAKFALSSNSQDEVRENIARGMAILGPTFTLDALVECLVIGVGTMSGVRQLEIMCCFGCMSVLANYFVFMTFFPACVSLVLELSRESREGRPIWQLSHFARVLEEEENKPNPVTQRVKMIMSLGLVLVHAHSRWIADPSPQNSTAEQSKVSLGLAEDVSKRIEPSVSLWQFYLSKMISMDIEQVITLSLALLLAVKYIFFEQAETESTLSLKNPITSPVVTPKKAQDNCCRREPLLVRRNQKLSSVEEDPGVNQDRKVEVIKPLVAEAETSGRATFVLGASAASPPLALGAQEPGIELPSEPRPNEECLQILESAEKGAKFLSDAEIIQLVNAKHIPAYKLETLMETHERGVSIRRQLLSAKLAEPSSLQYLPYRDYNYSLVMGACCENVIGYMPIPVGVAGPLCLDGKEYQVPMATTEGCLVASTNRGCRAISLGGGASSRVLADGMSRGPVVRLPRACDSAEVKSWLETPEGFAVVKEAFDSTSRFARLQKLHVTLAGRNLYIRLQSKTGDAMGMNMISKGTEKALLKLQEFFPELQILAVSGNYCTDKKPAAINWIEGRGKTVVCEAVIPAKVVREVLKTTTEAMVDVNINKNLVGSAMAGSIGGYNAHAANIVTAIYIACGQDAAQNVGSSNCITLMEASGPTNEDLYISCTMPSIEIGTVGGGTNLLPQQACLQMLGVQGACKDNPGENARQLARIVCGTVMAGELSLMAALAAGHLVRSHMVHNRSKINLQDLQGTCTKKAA
Description: The value is obtained by the product of the concentrations of enzyme and of inhibitor divided by the concentration of the enzyme-inhibitor complex.

rabbits = assay: Reduction of blood cholesterol levels in rabbits; format: in vivo; details: rabbit, 1 mg/kg oral twice each day
Protocol: In this test, the ability of Monacolin K to reduce cholesterol levels in rabbit blood is measured. The animals employed should each weigh from 2.5 to 3.0 kg. At the beginning of the tests, blood is collected from a vein in an ear of each rabbit and the cholesterol level in the blood serum is measured by a conventional method. A predetermined quantity of Monacolin K or of a Monacolin K-containing culture broth is then administered orally continuously for from 1 to 5 days and the cholesterol level in the blood serum is measured at stages after the administration. The potency of the Monacolin K or Monacolin K-containing culture medium can be determined quantitatively from the blood cholesterol levels obtained prior to and after administration of the Monacolin K.
The test animals used were rabbits having a body weight of from 2.7. kg to 2.9 kg. Each rabbit was given orally 1 mg/kg of Monacolin K twice each day (morning and evening) continuously for 5 days. Prior to administration and at 3 and 5 days after administration, blood was collected from a vein in the ear and the cholesterol levels in the blood serum were determined.

[2] = target: cholesterol biosynthesis (crude enzymes from rat liver); assay: In vitro test with rat liver: inhibition of cholesterol biosynthesis from radioactive acetic acid; format: biochemical; details: acetic acid reacted with enzyme from rat liver
[3] = format: physicochemical
Description: Insoluble in hexane and petroleum ether.
The compound is neutral and is insoluble in neutral or acidic aqueous media. It is, however, converted to an acidic substance by treatment with alkali and this acidic substance is soluble in water. The acidic substance can be extracted with ethyl acetate or chloroform at acid pH values and will revert to Monacolin K on evaporation of the solvent.

[4] = 10 mg/kg oral, 20 hours after administration

Solubility [3] | Compound | LD50 (Acute oral toxicity) [mg/kg] | reduction of blood cholesterol level vs control group (Triton WR-1339 alone) ([1]; 10 mg/kg intraperitoneal, 14 hours after administration) [%] | reduction of blood cholesterol level vs control group (Triton WR-1339 alone) [1, 4] [%] | reduction of liver cholesterol level [1, 4] [%] | Ki (HMG-CoA reductase; competitive with respect to HMG-CoA, read-out: Ki value (inhibition constant)) [nM] | manner of inhibition of HMG-CoA reductase (HMG-CoA reductase; with respect to HMG-CoA) | blood serum cholesterol level lower than prior to administration (rabbits; at 3 days) [%] | blood serum cholesterol level lower than prior to administration (rabbits; at 5 days) [%] | concentration giving 50% inhibition of cholesterol biosynthesis [2] [µg/mL]
 | CCC(C)C(=O)OC1CC(C)C=C2C=CC(C)C(CCC3CC(O)CC(=O)O3)C21 (stereo not shown) [Monacolin K] | ≥ 1000 | 23.9 | 22.4 | 16.7 | 0.53 | competitive | 15 | 29 | 0.002
soluble | CCC(C)C(=O)OC1CC(C)C=C2C=CC(C)C(CCC(O)CC(O)CC(=O)O)C21 (stereo not shown) [acidic substance] |  |  |  |  |  |  |  |  | 
